In US12419852B2, “Method for treating lysosomal storage disease” (Exerkine Corporation, priority 2018, dated 2025):

Assays:
[1] = system: mitochondrial complexes 1-5; assay: Western blotting for mitochondrial complexes 1-5 protein in quadriceps muscle; format: in vivo, mice; settings: western blot, range over the five complexes, FIGS. 3B-F
Method: (§1) Experimental groups All mice were fed standard rodent chow (chow diet; Harlan Teklad 8640 22/5), as a base diet with the exception of the group receiving a conventional […] diet (% kcal of SRT diet being 93.2% fat, 6.4% protein and 0.4% carbohydrates; Envigo, TD.07797). […]
(§2) Grip strength, motor coordination, and balance were evaluated prior to the introduction of the experimental diets. Motor coordination and balance were evaluated using a rotarod apparatus (Harvard Apparatus, MA), while forelimb grip strength was evaluated using a metal gripping bar attached to a DFIS-10 Chatillon digital force gage. Upon completion of the baseline testing, all groups were administered their respective experimental diets for a period of 8 weeks, when grip strength, motor coordination, and balance were re-evaluated as endpoint measures. […] The proteins p62, ubiquitin and mitochondrial complexes 1-5 were evaluated in quadriceps muscle using the following antibodies in 5% milk: p62 (Cell Signalling, Cat. #51145), ubiquitin (Enzo Life Sciences, Cat. #UG95100100) and Total OXPHOS Rodent WB Antibody Cocktail (Abcam, Cat. #ab110413). Autophagic buildup was determined using electron micrographs generated by the McMaster Electron Microscopy Facility. […]

[2] = system: Complex IV enzyme activity; assay: Complex IV (COX IV) enzymatic activity in quadriceps muscle; format: in vivo, mice; settings: skeletal muscle, after 8 weeks
Excerpt: as §1
To measure COX IV enzymatic activity, quadriceps muscle was homogenized in Lysing Matrix D tubes (MP Biomedicals, Solon, OH, USA) using the FastPrep-24 Tissue and Cell Homogenizer (MP Biomedicals, Solon, OH, USA) for 5×5-second cycles at a speed of 4.0 m/s with samples placed on ice for 5 minutes between cycles. […] The rate of oxidation of reduced cytochrome c was measured at 550 nm for 3 min at 37° C.

GAA knockout mice [3] = assay: Forelimb grip strength in GAA knockout mice (Pompe disease model); format: in vivo; settings: change over the 8 week period, FIG. 1A
Method: (§3) To determine if the ketogenic agent and enhanced ketogenic composition could improve autophagic activity, muscle function and mitochondrial capacity in mice having a lysosomal storage disease, mice lacking the acid alpha glucosidase (GAA) protein (an established mouse model of Pompe disease) were administered the ketogenic agent, the enhanced ketogenic composition or one of several control diets for a period of 8 weeks.
(§4) Breeding of GAA mice. Four GAA heterozygous breeding pairs (HET; GAA−/+; 6neo/6+) were obtained from Jackson Laboratories (Maine, USA) to generate homozygous GAA knock-outs (GAA; GAA−/−; 6neo/6neo). Mice were housed at McMaster University's Central Animal Facility in standard cages in 12-h light/dark cycles with ad libitum access to water and their respective diets. […]
(§5) Grip strength, motor coordination, and balance were evaluated prior to the introduction of the experimental diets. Motor coordination and balance were evaluated using a rotarod apparatus (Harvard Apparatus, MA), while forelimb grip strength was evaluated using a metal gripping bar attached to a DFIS-10 Chatillon digital force gage. Upon completion of the baseline testing, all groups were administered their respective experimental diets for a period of 8 weeks, when grip strength, motor coordination, and balance were re-evaluated as endpoint measures. […]

p62 protein = assay: Western blotting for p62 in quadriceps muscle; format: in vivo, mice; settings: western blot, after 8 weeks, FIG. 2B
Method: as §1, §2

[4] = system: autophagic buildup in skeletal muscle of GAA knockout mice; assay: Autophagic buildup scored on electron micrographs of skeletal muscle; format: in vivo; settings: skeletal muscle electron micrographs after 8 weeks; 0=no buildup to 3=severe, 7 micrographs; FIG. 2A
Method: as §1, §2

GAA knockout mice [5] = assay: Rotarod performance (motor coordination and balance) in GAA knockout mice; format: in vivo; settings: change over 8 weeks, FIG. 1B
Method: as §3, §4, §5

[6] = Pompe disease, 2 weeks after the infusion; cited from earlier work

With CC(O)CCO (stereo not shown) [ERT+1,3 BD, 1,3 butanediol] the “protein levels of mitochondrial complexes 1-5 higher compared to WT CON” value [1] was 219-647%, the “ratio of mean complex IV enzyme activity to mean complex IV protein content, lower compared to WT CON” value [2] was 41% and the “decline in forelimb grip strength” value (GAA knockout mice [3]) was “relatively unchanged”. The “p62 protein expression lower than GAA CON group” value (p62 protein) was 59%, the “autophagic buildup score (per mouse total score out of 21)” value [4] was 12/21 and the “improvement in duration of time able to balance on the rotarod apparatus” value (GAA knockout mice [5]) was 46%.

For “ERT: Enzyme replacement therapy: bi-weekly intravenous injections of 40 mg/kg recombinant GAA enzyme (Myozyme; Genzyme)”, the “protein levels of mitochondrial complexes 1-5 higher compared to WT CON” value [1] was 103-250%, the “ratio of mean complex IV enzyme activity to mean complex IV protein content, lower compared to WT CON” value [2] was 43% and the “decline in forelimb grip strength” value (GAA knockout mice [3]) was 20%. For the same compound, the “p62 protein expression lower than GAA CON group” value (p62 protein) was 23%, the “autophagic buildup score (per mouse total score out of 21)” value [4] was 15/21 and the “improvement in duration of time able to balance on the rotarod apparatus” value (GAA knockout mice [5]) was “little or no change”.

In the case of “recombinant GAA protein: Infused recombinant acid alpha-glucosidase (GAA) protein used as enzyme replacement therapy in Pompe disease”, the “fraction of infused protein retained within skeletal muscle” value [6] is given as 1-3%.
